The values below come from patent US20090105305A1, “Therapeutic Agents - 550” (AstraZeneca AB, priority 2006, published 2009).

For one experiment, the target named is T1, human Fatty Acid Synthase (Homo sapiens, UniProt P49327).
T1 construct: made in house
T1 sequence (P49327 whole entry): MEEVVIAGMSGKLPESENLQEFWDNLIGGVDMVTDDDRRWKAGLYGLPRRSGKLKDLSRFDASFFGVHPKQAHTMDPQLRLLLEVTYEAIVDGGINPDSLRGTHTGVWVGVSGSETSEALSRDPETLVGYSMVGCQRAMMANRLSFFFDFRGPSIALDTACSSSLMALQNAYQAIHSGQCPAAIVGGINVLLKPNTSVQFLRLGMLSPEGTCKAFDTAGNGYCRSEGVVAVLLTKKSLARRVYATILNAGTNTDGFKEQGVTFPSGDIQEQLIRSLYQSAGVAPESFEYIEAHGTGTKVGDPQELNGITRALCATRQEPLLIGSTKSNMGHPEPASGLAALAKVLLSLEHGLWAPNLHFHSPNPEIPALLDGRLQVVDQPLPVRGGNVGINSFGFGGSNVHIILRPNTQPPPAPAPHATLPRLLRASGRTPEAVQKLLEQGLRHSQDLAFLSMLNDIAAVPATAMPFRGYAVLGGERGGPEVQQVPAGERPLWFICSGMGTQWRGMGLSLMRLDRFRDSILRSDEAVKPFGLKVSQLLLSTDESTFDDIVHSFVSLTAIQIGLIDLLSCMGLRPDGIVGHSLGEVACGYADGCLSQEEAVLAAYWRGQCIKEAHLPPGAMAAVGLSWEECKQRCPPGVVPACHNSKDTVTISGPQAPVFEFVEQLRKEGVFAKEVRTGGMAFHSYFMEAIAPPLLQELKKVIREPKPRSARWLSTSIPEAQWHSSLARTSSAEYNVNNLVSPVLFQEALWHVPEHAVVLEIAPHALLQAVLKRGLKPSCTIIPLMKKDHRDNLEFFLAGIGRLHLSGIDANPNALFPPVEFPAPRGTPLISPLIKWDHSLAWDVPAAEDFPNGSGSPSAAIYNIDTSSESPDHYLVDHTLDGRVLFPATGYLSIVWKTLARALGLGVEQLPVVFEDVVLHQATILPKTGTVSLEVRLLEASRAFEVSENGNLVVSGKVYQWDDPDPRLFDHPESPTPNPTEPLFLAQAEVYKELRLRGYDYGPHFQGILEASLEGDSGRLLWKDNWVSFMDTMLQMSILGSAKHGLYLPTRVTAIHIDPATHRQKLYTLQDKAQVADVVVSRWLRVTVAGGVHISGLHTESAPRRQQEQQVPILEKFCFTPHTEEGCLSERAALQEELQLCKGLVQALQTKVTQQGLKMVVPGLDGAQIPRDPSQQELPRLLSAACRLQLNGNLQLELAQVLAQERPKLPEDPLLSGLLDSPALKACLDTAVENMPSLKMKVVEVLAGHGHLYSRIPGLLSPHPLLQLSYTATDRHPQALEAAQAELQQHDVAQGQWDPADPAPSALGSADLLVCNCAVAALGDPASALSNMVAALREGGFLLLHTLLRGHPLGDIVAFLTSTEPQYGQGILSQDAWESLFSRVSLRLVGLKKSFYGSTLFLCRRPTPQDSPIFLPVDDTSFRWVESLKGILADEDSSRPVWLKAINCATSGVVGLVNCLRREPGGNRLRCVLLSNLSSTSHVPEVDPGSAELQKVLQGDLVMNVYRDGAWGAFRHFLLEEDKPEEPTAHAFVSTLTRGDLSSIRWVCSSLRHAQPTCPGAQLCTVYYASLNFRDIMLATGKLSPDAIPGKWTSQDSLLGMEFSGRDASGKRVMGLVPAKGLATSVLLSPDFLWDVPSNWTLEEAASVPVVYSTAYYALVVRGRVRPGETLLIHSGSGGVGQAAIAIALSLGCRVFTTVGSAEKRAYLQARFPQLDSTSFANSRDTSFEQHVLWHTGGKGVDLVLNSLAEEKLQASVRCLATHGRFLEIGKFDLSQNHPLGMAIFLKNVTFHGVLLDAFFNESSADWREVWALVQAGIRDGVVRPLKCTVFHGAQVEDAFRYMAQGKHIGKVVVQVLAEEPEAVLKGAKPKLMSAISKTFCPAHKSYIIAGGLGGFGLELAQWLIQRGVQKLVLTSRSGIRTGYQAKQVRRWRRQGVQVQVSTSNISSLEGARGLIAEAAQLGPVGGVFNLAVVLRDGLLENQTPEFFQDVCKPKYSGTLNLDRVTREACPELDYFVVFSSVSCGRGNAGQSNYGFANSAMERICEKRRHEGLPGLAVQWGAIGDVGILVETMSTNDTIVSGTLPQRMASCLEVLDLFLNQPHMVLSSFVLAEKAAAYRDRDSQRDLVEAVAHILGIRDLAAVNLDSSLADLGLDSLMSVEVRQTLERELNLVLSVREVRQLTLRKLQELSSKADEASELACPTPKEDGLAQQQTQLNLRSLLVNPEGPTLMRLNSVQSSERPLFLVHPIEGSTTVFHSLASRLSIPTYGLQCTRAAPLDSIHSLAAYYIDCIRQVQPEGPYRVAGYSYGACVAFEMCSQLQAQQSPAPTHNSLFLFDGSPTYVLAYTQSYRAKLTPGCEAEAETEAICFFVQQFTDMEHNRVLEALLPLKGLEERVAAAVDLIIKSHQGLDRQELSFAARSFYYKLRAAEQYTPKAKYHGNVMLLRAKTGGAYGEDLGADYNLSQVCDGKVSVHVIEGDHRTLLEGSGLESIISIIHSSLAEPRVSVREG
Nature of the experiment: Human FAS enzyme assay (decrease in NADPH fluorescence). In kind it is biochemical. The following applies: % inhibition at a concentration of 100 micromolar. The method in brief:
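In-house human FAS (0.4 μg) was preincubated 15 min at RT with compound and NADPH (added at 166.6 μM) in 0.1 M Tris pH 7.5, 1 mM glutathione, 0.05% BSA. Malonyl-/acetyl-CoA (500/150 μM in substrate mix) was then added for 60 min. Readout was NADPH fluorescence loss (ex 340/em 460) over a time-zero read, with IC50 from a sigmoid fit.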
Regarding `COCCS(=O)(=O)Nc1cc(C(=O)N2CCC(c3ccc(C#N)cc3)CC2)ccc1C` [Example 105, N-[5-[4-(4-cyanophenyl)piperidine-1-carbonyl]-2-methyl-phenyl]-2-methoxy-ethanesulfonamide], the inhibition at 100 µM was 89%.
`COc1ccc(NS(=O)(=O)Cc2ccccc2)cc1C(=O)N1CCC(c2ccc(C#N)cc2)CC1` [Example 31, N-[3-[4-(4-cyanophenyl)piperidine-1-carbonyl]-4-methoxy-phenyl]-1-phenyl-methanesulfonamide] displayed an inhibition at 100 µM of 83%.
`Cc1ccc(C(=O)N2CCC(c3ccc(C#N)cc3)CC2)cc1NS(=O)(=O)c1ccc(Cl)cc1` [Example 3, 4-chloro-N-[5-[4-(4-cyanophenyl)piperidine-1-carbonyl]-2-methyl-phenyl]benzenesulfonamide]: testing at 100 µM gave an inhibition of 96%.
Still for that read-out and setting: next, `Cc1ccc(C(=O)N2CCC(c3ccc(C#N)cc3)CC2)cc1NS(=O)(=O)CCNS(C)(=O)=O` [Example 77, N-[5-[4-(4-cyanophenyl)piperidine-1-carbonyl]-2-methyl-phenyl]-2-methanesulfonamido-ethanesulfonamide]: 98%; `Cc1ccc(C(=O)N2CCC(c3ccc(C(N)=O)cc3)CC2)cc1NS(C)(=O)=O` [Example 112, 4-[1-(3-methanesulfonamido-4-methyl-benzoyl)-4-piperidyl]benzamide]: 79%.
Still for that read-out and setting: then `Cc1ccc(NS(=O)(=O)Cc2ccc(F)cc2F)cc1C(=O)N1CCC(c2ccc(C#N)cc2)CC1` [Example 56, N-[3-[4-(4-cyanophenyl)piperidine-1-carbonyl]-4-methyl-phenyl]-1-(2,4-difluorophenyl)methanesulfonamide], with 89%.
With `Cc1ccc(C(=O)N2CCC(c3ccc(C#N)cc3)CC2)cc1NS(=O)(=O)c1ccccc1C(=O)NCCO` [Example 207, 2-[[5-[4-(4-cyanophenyl)piperidine-1-carbonyl]-2-methylphenyl]sulfamoyl]-N-(2-hydroxyethyl)benzamide], 100 µM produced 75% inhibition.
Take `COC(=O)C(C)S(=O)(=O)Nc1cc(C(=O)N2CCC(c3ccc(C#N)cc3)CC2)ccc1C` (stereo not shown) [Example 137, Methyl 2-[[5-[4-(4-cyanophenyl)piperidine-1-carbonyl]-2-methyl-phenyl]sulfamoyl]propanoate]: the inhibition at 100 µM came to 97%.
`Cc1ccc(C(=O)N2CCC(c3ccc(C#N)cc3)CC2)cc1NS(=O)(=O)c1cccc(C#N)c1` [Example 21, 3-cyano-N-[5-[4-(4-cyanophenyl)piperidine-1-carbonyl]-2-methyl-phenyl]benzenesulfonamide]: the inhibition at 100 µM turned out to be 90%.
The compound `Cc1ccc(C(=O)N2CCC(c3ccc(C#N)cc3)CC2)cc1NS(=O)(=O)c1cn(C)cn1` [Example 94, N-[5-[4-(4-cyanophenyl)piperidine-1-carbonyl]-2-methyl-phenyl]-1-methyl-imidazole-4-sulfonamide] came in with an inhibition at 100 µM of 86%.
`Cc1ccc(NS(=O)(=O)CC2CCCC2)cc1C(=O)N1CCC(c2ccc(C#N)cc2)CC1` [Example 43, N-[3-[4-(4-cyanophenyl)piperidine-1-carbonyl]-4-methyl-phenyl]-1-cyclopentyl-methanesulfonamide] had an inhibition at 100 µM of 93%.

Staying with this experiment, now noted: compounds excluded from the claims by proviso.
Consider `Cc1ccc(C(=O)N2CCC(c3cccc(-c4ccccc4)c3)CC2)cc1NS(C)(=O)=O` [N-[2-methyl-5-[4-(3-phenylphenyl)piperidine-1-carbonyl]phenyl]methanesulfonamide], for which the “IC50s in the range of about 0.001 μM to about 30 μM” value is “do not have IC50s in the range of about 0.001 μM to about 30 μM”.
As for `Cc1ccc(C(=O)N2CCC(c3ccc(S(=O)(=O)N4CC[C@@H](O)C4)cc3)CC2)cc1NS(C)(=O)=O` [N-[5-[4-[4-[(3R)-3-hydroxypyrrolidin-1-yl]sulfonylphenyl]piperidine-1-carbonyl]-2-methylphenyl]methanesulfonamide], the “IC50s in the range of about 0.001 μM to about 30 μM” value is “do not have IC50s in the range of about 0.001 μM to about 30 μM”.
